According to PubChem BioAssay (NCI):
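Tested at 5 concentrations; 48 h exposure; 96-well plates; endpoints linearly interpolated, else capped at highest concentration. The concentration for full growth arrest is given as TGI.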

Tests used:
Experiment in all cases: NCI tumour cell line growth inhibition, 48 h
SK-MEL-2 melanoma = tested on: SK-MEL-2 melanoma
NCI-H522 lung = tested on: NCI-H522 lung
U251 CNS = tested on: U251 CNS
LOX IMVI melanoma = tested on: LOX IMVI melanoma
MOLT-4 leukemia = tested on: MOLT-4 leukemia
TK-10 renal = tested on: TK-10 renal
CCRF-CEM leukemia = tested on: CCRF-CEM leukemia
SF-295 CNS = tested on: SF-295 CNS
NCI-H460 lung = tested on: NCI-H460 lung
IGROV1 ovarian = tested on: IGROV1 ovarian
OVCAR-3 ovarian = tested on: OVCAR-3 ovarian
COLO 205 colon = tested on: COLO 205 colon
UACC-257 melanoma = tested on: UACC-257 melanoma
OVCAR-4 ovarian = tested on: OVCAR-4 ovarian
EKVX NSCLC = tested on: EKVX NSCLC
SNB-19 CNS = tested on: SNB-19 CNS
A498 renal = tested on: A498 renal
786-0 renal = tested on: 786-0 renal
SK-OV-3 ovarian = tested on: SK-OV-3 ovarian
T-47D breast = tested on: T-47D breast

Structure (SMILES) | TGI (SK-MEL-2 melanoma) [µM] | TGI (NCI-H522 lung) [µM] | TGI (U251 CNS) [µM] | TGI (LOX IMVI melanoma) [µM] | TGI (MOLT-4 leukemia) [µM] | TGI (TK-10 renal) [µM] | TGI (CCRF-CEM leukemia) [µM] | TGI (SF-295 CNS) [µM] | TGI (NCI-H460 lung) [µM] | TGI (IGROV1 ovarian) [µM] | TGI (OVCAR-3 ovarian) [µM] | TGI (COLO 205 colon) [µM] | TGI (UACC-257 melanoma) [µM] | TGI (OVCAR-4 ovarian) [µM] | TGI (EKVX NSCLC) [µM] | TGI (SNB-19 CNS) [µM] | TGI (A498 renal) [µM] | TGI (786-0 renal) [µM] | TGI (SK-OV-3 ovarian) [µM] | TGI (T-47D breast) [µM]
CCOC(=O)c1[nH]c2ccccc2c1C(=O)C[C@H](NC(=O)C(F)(F)F)C(=O)OC | > 100 | > 100 | > 100 | > 100 | > 100 | > 100 | > 100 | > 100 | > 100 | > 100 | > 100 | > 100 | > 100 | > 100 | > 100 | > 100 | > 100 | > 100 | – | –
CCCCCCCC/C=C\CCCCCCCC(=O)NCCN(CCN)C(=O)CCCCCCC/C=C\CCCCCCCC | – | – | > 100 | > 100 | > 100 | > 100 | > 100 | > 100 | > 100 | > 100 | > 100 | > 100 | > 100 | > 100 | – | > 100 | > 100 | > 100 | > 100 | –
CC(C)NC(=O)OCCN=C1c2ccccc2CCc2ccccc21 | 34.6 | – | 50.6 | 72.7 | 39.7 | 92.7 | 46.5 | 28.7 | 76.9 | > 100 | 58.5 | 35.7 | 46 | 43.1 | 81.3 | 66.8 | – | > 100 | 85.4 | 66.1
N/N=C1\CCCc2c1no[n+]2[O-] | > 100 | > 100 | > 100 | > 100 | > 100 | > 100 | > 100 | > 100 | > 100 | > 100 | > 100 | > 100 | > 100 | > 100 | > 100 | > 100 | > 100 | > 100 | > 100 | –
CC(=O)O[C@H]1C(=O)[C@@]2(C)C(C(OC(=O)c3ccccc3)[C@]3(O)CC(OC(=O)C(O)C(NC(=O)c4ccc(C)cc4)c4ccccc4)C(C)=C1C3(C)C)[C@]1(OC(C)=O)CO[C@@H]1C[C@@H]2O (stereo partly specified) | 0.0141 | < 0.0025 | > 25 | 7.77 | 7.39 | 9.47 | > 25 | 0.107 | > 25 | 0.101 | < 0.0025 | 0.00736 | > 25 | > 25 | > 25 | 16.7 | 14.1 | > 25 | 0.0284 | –
C=C1c2nc3ccccc3n2C=C(c2ccccc2)N1c1ccccc1 | > 100 | > 100 | > 100 | > 100 | > 100 | > 100 | > 100 | > 100 | 79.6 | > 100 | > 100 | > 100 | > 100 | > 100 | > 100 | > 100 | > 100 | > 100 | > 100 | –
COc1ccc2oc(C(=O)N3CC(CCl)c4ccc([N+](=O)[O-])cc43)cc2c1 (stereo unspecified) | > 100 | – | > 100 | > 100 | – | > 100 | – | 69.6 | > 100 | 29.5 | – | > 100 | > 100 | > 100 | > 100 | > 100 | 58.5 | 46 | 48.7 | > 100
CN(/N=C/C=N/N(C)C1=NCCCCN1)C1=NCCCCN1 | – | > 100 | > 100 | > 100 | > 100 | > 100 | > 100 | > 100 | > 100 | > 100 | > 100 | > 100 | > 100 | > 100 | > 100 | > 100 | – | > 100 | > 100 | > 100
CC1(C)CN=C(Nc2cccc(C(F)(F)F)c2)S1 | > 100 | > 100 | > 100 | > 100 | > 100 | > 100 | > 100 | > 100 | – | > 100 | > 100 | > 100 | > 100 | > 100 | > 100 | > 100 | – | > 100 | > 100 | > 100
COC(=O)[C@]1(C)CCC[C@@]2(C)C1CCC1=CC3(C(C)C)CCC12OO3 (stereo partly specified) | > 100 | > 100 | > 100 | > 100 | > 100 | > 100 | > 100 | > 100 | > 100 | > 100 | > 100 | > 100 | > 100 | > 100 | > 100 | > 100 | > 100 | > 100 | > 100 | –
COc1cccc(N2C(=O)CSC2c2cc(OC)c(OC)c(OC)c2)c1 (stereo unspecified) | > 100 | 90.4 | > 100 | > 100 | > 100 | > 100 | 65 | 97.8 | > 100 | > 100 | 66.2 | 76.8 | > 100 | > 100 | > 100 | 63 | > 100 | > 100 | > 100 | –
Cn1c2ccccc2c(=NNc2ccccc2C(=O)O)c2ccccc21 | 43.7 | 33.3 | 34.6 | 25.6 | > 100 | 75.2 | 72 | 82.6 | 39.7 | 94.3 | 28.5 | 34.1 | 51.5 | 44.9 | 38 | > 100 | – | > 100 | 71.1 | 88.3
CCOC(=O)c1c(-c2ccc(OC)cc2)c(C#N)c(=S)n(C2OC(CO)C(O)C(O)C2O)c1-c1ccccc1 (stereo unspecified) | > 100 | – | > 100 | > 100 | 96.5 | > 100 | > 100 | > 100 | > 100 | > 100 | 73 | > 100 | > 100 | > 100 | – | > 100 | – | > 100 | > 100 | > 100
COC(=O)C(Cc1ccccc1)OC(=O)C(N)CC(=O)O (stereo unspecified) | > 100 | > 100 | – | – | > 100 | > 100 | – | > 100 | > 100 | > 100 | > 100 | > 100 | > 100 | – | > 100 | > 100 | – | > 100 | > 100 | > 100
N#Cc1cc([N+](=O)[O-])ccc1NC(=O)C(=O)C(C(=O)/C=C/c1ccccc1)C1OC(=O)c2ccccc21 (stereo unspecified) | – | > 100 | > 100 | > 100 | – | > 100 | > 100 | > 100 | > 100 | > 100 | > 100 | > 100 | > 100 | > 100 | > 100 | > 100 | > 100 | > 100 | > 100 | –
COc1ccc([C@H]2CC(=O)NCCCCN2)cc1 | > 100 | > 100 | > 100 | – | > 100 | > 100 | > 100 | > 100 | > 100 | > 100 | – | > 100 | > 100 | > 100 | > 100 | > 100 | > 100 | > 100 | > 100 | –
c1cncc(-c2ncc3cccnc3n2)c1 | > 100 | > 100 | > 100 | > 100 | > 100 | > 100 | > 100 | > 100 | > 100 | > 100 | > 100 | > 100 | > 100 | > 100 | > 100 | > 100 | > 100 | > 100 | > 100 | –
O=C(O)c1ccc(C(c2c(O)c3ccccc3oc2=O)c2c(O)c3ccccc3oc2=O)cc1 | > 100 | – | > 100 | > 100 | > 100 | – | > 100 | > 100 | > 100 | – | > 100 | > 100 | > 100 | – | – | > 100 | > 100 | > 100 | > 100 | > 100
O=C(Nc1c(O)[nH]c(=S)[nH]c1=O)c1ccc2ccccc2n1 | – | > 100 | > 100 | > 100 | > 100 | > 100 | > 100 | > 100 | > 100 | > 100 | > 100 | > 100 | > 100 | > 100 | – | > 100 | > 100 | > 100 | > 100 | –
N#CC(c1cc2c(cc1Br)OCO2)N1CCOCC1 (stereo unspecified) | – | > 100 | – | > 100 | > 100 | > 100 | > 100 | > 100 | > 100 | > 100 | > 100 | > 100 | > 100 | > 100 | > 100 | > 100 | – | > 100 | > 100 | > 100
CCOC(=O)[C@@]12CCC(C1=O)[C@](C)(O)C[C@@H]2c1ccccc1 | > 100 | 52.1 | > 100 | > 100 | > 100 | > 100 | > 100 | > 100 | > 100 | > 100 | 84 | > 100 | > 100 | > 100 | > 100 | > 100 | – | 68.8 | 96.9 | > 100
O=C1CC2(CCNCC2)C(=O)N1N1CCCC1 | – | > 100 | > 100 | > 100 | > 100 | > 100 | > 100 | > 100 | – | > 100 | > 100 | > 100 | > 100 | – | > 100 | > 100 | – | > 100 | > 100 | > 100
COc1nc2sc3c(c2c(=O)n1CCCSSCCCn1c(OC)nc2sc4c(c2c1=O)CCCC4)CCCC3 | > 100 | > 100 | > 100 | > 100 | > 100 | > 100 | > 100 | > 100 | – | > 100 | – | > 100 | > 100 | > 100 | > 100 | > 100 | – | > 100 | > 100 | > 100
NC1=NNC2(C(N)=N1)c1ccccc1-c1ccccc12 | – | > 10 | – | > 10 | > 10 | > 10 | – | > 10 | > 10 | > 10 | – | > 10 | > 10 | > 10 | > 10 | > 10 | – | > 10 | > 10 | > 10
COc1ccc2c(c1)N=C1CSC(c3cc([N+](=O)[O-])ccc3Cl)N1C2 (stereo unspecified) | 51.1 | 57 | 71.2 | > 100 | 77.8 | 55.4 | – | > 100 | 45.4 | > 100 | – | 79.6 | 37.9 | > 100 | 47.1 | > 100 | – | 89.3 | 65.1 | > 100
CC(C)OP(=O)(OC(C)C)C(=Nc1ccccc1)NNc1ccc([N+](=O)[O-])cc1 | > 100 | 58 | 52.5 | > 100 | 41.9 | 46.2 | 56.9 | – | > 100 | – | > 100 | 51.5 | > 100 | > 100 | > 100 | > 100 | – | 83.3 | – | –
